Data from ChEMBL document CHEMBL1255399, “Haemophilus influenzae clinical isolates with plasmid pB1000 bearing blaROB-1: fitness cost and interspecies dissemination” (2010).
≈ marks a conversion by molar mass, not a printed value.

Legend:
Type in all cases: functional
Haemophilus influenzae [1] = test: Antimicrobial activity against ampicillin resistant serotype-e Haemophilus influenzae isolate BB1053 harboring with plasmid pB1000 bearing beta-lactamase ROB-1 by broth microdilution method
Haemophilus influenzae [2] = test: Antimicrobial activity against ampicillin resistant nontypeable Haemophilus influenzae isolate BB1052 harboring with plasmid pB1000 bearing beta-lactamase ROB-1 by broth microdilution method
Haemophilus influenzae [3] = test: Antimicrobial activity against Haemophilus influenzae Rd KW20 by broth microdilution method
Haemophilus influenzae [4] = test: Antimicrobial activity against Haemophilus influenzae Rd KW20 harboring with plasmid pB1000 bearing beta-lactamase ROB-1 by broth microdilution method
Haemophilus influenzae [5] = test: Antimicrobial activity against ampicillin resistant nontypeable Haemophilus influenzae isolate BB1051 harboring with plasmid pB1000 bearing beta-lactamase ROB-1 by broth microdilution method
Haemophilus influenzae [6] = test: Antimicrobial activity against ampicillin resistant nontypeable Haemophilus influenzae isolate BB1050 harboring with plasmid pB1000 bearing beta-lactamase ROB-1 by broth microdilution method

Row | Structure (SMILES) | MIC (Haemophilus influenzae [1]) [µg/mL] | MIC (Haemophilus influenzae [2]) [µg/mL] | MIC (Haemophilus influenzae [3]) [µg/mL] | MIC (Haemophilus influenzae [4]) [µg/mL] | MIC (Haemophilus influenzae [5]) [µg/mL] | MIC (Haemophilus influenzae [6]) [µg/mL]
1 | CC1(C)S[C@@H]2[C@H](NC(=O)[C@H](N)c3ccc(O)cc3)C(=O)N2[C@H]1C(=O)O [AMOXICILLIN] | > 64 | > 64 | ≤ 0.5 | > 64 | > 64 | > 64
2 | CC1(C)S[C@@H]2[C@H](NC(=O)[C@H](N)c3ccccc3)C(=O)N2[C@H]1C(=O)O [AMPICILLIN] | > 128 | > 128 | ≤ 0.25 | > 128 | > 128 | > 128
3 | C[C@H]1[C@H](NC(=O)/C(=N\OC(C)(C)C(=O)O)c2csc(N)n2)C(=O)N1S(=O)(=O)O [AZTREONAM] | ≤ 0.12 | ≤ 0.12 | ≤ 0.12 | ≤ 0.12 | ≤ 0.12 | ≤ 0.12
4 | N[C@@H](C(=O)N[C@@H]1C(=O)N2C(C(=O)O)=C(Cl)CS[C@H]12)c1ccccc1 [CEFACLOR ANHYDROUS] | 64 (≈ 174 µM) | 64 (≈ 174 µM) | 1 (≈ 2.72 µM) | 64 (≈ 174 µM) | 64 (≈ 174 µM) | 64 (≈ 174 µM)
5 | C=CC1=C(C(=O)O)N2C(=O)[C@@H](NC(=O)/C(=N\OCC(=O)O)c3csc(N)n3)[C@H]2SC1 [CEFIXIME] | 0.06 (≈ 0.132 µM) | ≤ 0.03 | ≤ 0.03 | 0.06 (≈ 0.132 µM) | 0.06 (≈ 0.132 µM) | 0.06 (≈ 0.132 µM)
6 | CO/N=C(\C(=O)N[C@@H]1C(=O)N2C(C(=O)O)=C(COC(C)=O)CS[C@H]12)c1csc(N)n1 [CEFOTAXIME] | ≤ 0.03 | ≤ 0.03 | ≤ 0.03 | – | ≤ 0.03 | 0.06 (≈ 0.132 µM)
7 | CO/N=C(\C(=O)N[C@@H]1C(=O)N2C(C(=O)O)=C(COC(N)=O)CS[C@H]12)c1ccco1 [CEFUROXIME] | 4 (≈ 9.43 µM) | 4 (≈ 9.43 µM) | 0.5 (≈ 1.18 µM) | 4 (≈ 9.43 µM) | 4 (≈ 9.43 µM) | 4 (≈ 9.43 µM)
8 | C[C@@H](O)[C@H]1C(=O)N2C(C(=O)O)=C(SCCNC=N)C[C@H]12 [IMIPENEM ANHYDROUS] | 0.5 (≈ 1.67 µM) | 1 (≈ 3.34 µM) | 0.5 (≈ 1.67 µM) | 1 (≈ 3.34 µM) | 0.5 (≈ 1.67 µM) | 2 (≈ 6.68 µM)
9 | CC1(C)S[C@@H]2[C@H](NC(=O)Cc3ccccc3)C(=O)N2[C@H]1C(=O)O [PENICILLIN G] | > 256 | > 256 | 0.5 (≈ 1.5 µM) | > 256 | > 256 | > 256
